# From patent US20090012103A1, “SUBSTITUTED HETEROCYCLIC COMPOUNDS” (priority 2007, published 2009)
# Target: wild-type human cardiac sodium channel, hNav1.5 (Homo sapiens, UniProt Q14524)
# Experiment: Late INa screening assay (late sodium current, PatchXpress whole cell patch clamp)
# Assay type: cell-based
# Conditions: compound at 10 μM; read-out: Late INa % blk
# Sequence of wild-type human cardiac sodium channel, hNav1.5 (Q14524 whole entry): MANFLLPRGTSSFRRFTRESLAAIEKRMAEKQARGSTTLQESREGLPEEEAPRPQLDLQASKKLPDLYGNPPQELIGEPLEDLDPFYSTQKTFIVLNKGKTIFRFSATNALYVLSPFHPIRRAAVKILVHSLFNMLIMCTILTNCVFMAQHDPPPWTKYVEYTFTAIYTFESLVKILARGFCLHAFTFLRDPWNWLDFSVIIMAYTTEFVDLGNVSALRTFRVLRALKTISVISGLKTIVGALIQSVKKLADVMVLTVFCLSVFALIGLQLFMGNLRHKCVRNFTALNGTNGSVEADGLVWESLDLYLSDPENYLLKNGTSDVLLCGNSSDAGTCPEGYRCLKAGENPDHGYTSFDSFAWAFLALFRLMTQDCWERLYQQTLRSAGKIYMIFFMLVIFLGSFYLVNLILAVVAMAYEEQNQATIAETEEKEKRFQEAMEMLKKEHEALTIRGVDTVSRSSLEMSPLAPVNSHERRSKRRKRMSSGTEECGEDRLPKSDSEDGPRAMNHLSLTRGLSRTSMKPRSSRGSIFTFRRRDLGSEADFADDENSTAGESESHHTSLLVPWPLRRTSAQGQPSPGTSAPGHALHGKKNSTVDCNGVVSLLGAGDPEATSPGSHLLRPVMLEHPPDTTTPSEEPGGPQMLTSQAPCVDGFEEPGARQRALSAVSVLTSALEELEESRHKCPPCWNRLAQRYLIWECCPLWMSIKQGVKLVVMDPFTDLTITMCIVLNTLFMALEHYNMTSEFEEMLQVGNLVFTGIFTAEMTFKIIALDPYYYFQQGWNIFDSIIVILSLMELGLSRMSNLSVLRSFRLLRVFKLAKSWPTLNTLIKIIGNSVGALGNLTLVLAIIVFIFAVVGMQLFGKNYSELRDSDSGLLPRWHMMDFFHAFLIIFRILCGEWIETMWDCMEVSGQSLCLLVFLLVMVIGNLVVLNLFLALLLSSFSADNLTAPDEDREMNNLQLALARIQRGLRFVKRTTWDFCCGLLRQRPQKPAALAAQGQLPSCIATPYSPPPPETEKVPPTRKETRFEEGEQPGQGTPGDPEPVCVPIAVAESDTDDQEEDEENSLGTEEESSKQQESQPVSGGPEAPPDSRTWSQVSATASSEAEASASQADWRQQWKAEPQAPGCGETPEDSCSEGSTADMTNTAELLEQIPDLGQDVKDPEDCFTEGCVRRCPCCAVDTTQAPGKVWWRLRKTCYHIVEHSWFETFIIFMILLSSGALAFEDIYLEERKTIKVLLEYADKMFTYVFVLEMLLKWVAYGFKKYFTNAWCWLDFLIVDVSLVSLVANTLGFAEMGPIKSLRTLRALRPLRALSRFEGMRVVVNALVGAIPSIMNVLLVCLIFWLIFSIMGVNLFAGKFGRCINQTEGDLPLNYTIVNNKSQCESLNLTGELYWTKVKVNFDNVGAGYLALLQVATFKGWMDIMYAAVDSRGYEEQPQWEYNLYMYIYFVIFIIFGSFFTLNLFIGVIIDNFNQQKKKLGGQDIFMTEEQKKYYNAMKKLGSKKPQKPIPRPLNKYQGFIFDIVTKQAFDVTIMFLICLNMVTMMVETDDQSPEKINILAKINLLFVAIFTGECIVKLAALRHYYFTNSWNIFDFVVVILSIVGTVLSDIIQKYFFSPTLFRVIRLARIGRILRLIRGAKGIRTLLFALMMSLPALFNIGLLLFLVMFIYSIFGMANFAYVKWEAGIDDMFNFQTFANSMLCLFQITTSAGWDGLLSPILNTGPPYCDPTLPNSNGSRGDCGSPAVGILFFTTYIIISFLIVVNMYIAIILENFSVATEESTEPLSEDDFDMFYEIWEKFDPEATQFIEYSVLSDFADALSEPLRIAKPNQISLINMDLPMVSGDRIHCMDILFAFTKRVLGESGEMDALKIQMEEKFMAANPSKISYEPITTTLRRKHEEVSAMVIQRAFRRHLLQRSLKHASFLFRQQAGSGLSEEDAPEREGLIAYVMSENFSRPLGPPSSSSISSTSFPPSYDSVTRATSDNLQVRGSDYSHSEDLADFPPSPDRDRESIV
row,Structure (SMILES),inhibition at 10 µM
1,"CC1=C(c2nnc(C)o2)C(c2cccc3ccccc23)n2nnnc2N1 (centres unmarked) [PT-267, 2-methyl-5-(5-methyl-7-(naphthalen-1-yl)-4,7-dihydrotetrazolo[1,5-a]pyrimidin-6-yl)-1,3,4-oxadiazole]",17%
2,"CC1=C(C(=O)OCc2ccccc2)C(c2ccc(SC(F)(F)F)cc2)n2nnnc2N1 (centres unmarked) [PT-359, benzyl 5-methyl-7-(4-(trifluoromethylthio)phenyl)-4,7-dihydrotetrazolo[1,5-a]pyrimidine-6-carboxylate]",21.3%
3,"CC1=C(C(=O)OCc2ccccc2)C(c2ccccc2-c2ccccc2C#N)n2nnnc2N1 (centres unmarked) [PT-390, benzyl 7-(2′-cyanobiphenyl-2-yl)-5-methyl-4,7-dihydrotetrazolo[1,5-a]pyrimidine-6-carboxylate]",20%
4,"CC1=C(C(=O)OCc2ccccc2)C(c2ccccc2OCc2ccccc2)n2nnnc2N1 (centres unmarked) [PT-383, benzyl 7-(2-(benzyloxy)phenyl)-5-methyl-4,7-dihydrotetrazolo[1,5-a]pyrimidine-6-carboxylate]",79.5%
5,"COC(=O)C1=C(C)Nc2nnnn2C1c1c(Br)sc2ccc(Cl)cc12 (centres unmarked) [PT-517, methyl 7-(2-bromo-5-chlorobenzo[b]thiophen-3-yl)-5-methyl-4,7-dihydrotetrazolo[1,5-a]pyrimidine-6-carboxylate]",43.3%
6,"CCOC(=O)C1=C(C)N(CC(=O)O)c2nnnn2C1c1cccc2ccccc12 (centres unmarked) [PT-258, 2-(6-(ethoxycarbonyl)-5-methyl-7-(naphthalen-1-yl)tetrazolo[1,5-a]pyrimidin-4(7H)-yl)acetic acid]",1.6%
7,"CC1=C(C(=O)OCc2ccccc2-c2ccccc2)C(c2cccc3ccccc23)n2nnnc2N1 (centres unmarked) [PT-005, biphenyl-2-ylmethyl 5-methyl-7-(naphthalen-1-yl)-4,7-dihydrotetrazolo[1,5-a]pyrimidine-6-carboxylate]",25.4%
8,"N#CC1=C(N)OC2=C(C(=O)CC2)C1c1ccc(Br)cc1 (centres unmarked) [PT-093, 2-amino-4-(4-bromophenyl)-5-oxo-4,5,6,7-tetrahydrocyclopenta[b]pyran-3-carbonitrile]",-2.6%
9,"COC(=O)c1ccc(C2C(C(=O)OCc3ccccc3)=C(C)Nc3nnnn32)c([N+](=O)[O-])c1 (centres unmarked) [PT-411, benzyl 7-(4-(methoxycarbonyl)-2-nitrophenyl)-5-methyl-4,7-dihydrotetrazolo[1,5-a]pyrimidine-6-carboxylate]",11.4%
10,"CC1=C(C(=O)OC(C)C)C(c2ccc3ccccc3c2)n2nnnc2N1 (centres unmarked) [PT-020, isopropyl 5-methyl-7-(naphthalen-2-yl)-4,7-dihydrotetrazolo[1,5-a]pyrimidine-6-carboxylate]",47.7%
11,"CC1=C(C(=O)OCc2ccccc2)C(c2ccc(C(F)(F)F)cc2[N+](=O)[O-])n2nnnc2N1 (centres unmarked) [PT-347, benzyl 5-methyl-7-(2-nitro-4-(trifluoromethyl)phenyl)-4,7-dihydrotetrazolo[1,5-a]pyrimidine-6-carboxylate]",5.1%
12,"CCOC(=O)C1=C(C)NC(C)=C(C(=O)OCC)C1c1ccc(OC)cc1OC [PT-429, diethyl 4-(2,4-dimethoxyphenyl)-2,6-dimethyl-1,4-dihydropyridine-3,5-dicarboxylate]",14.9%
13,"CC1=C(C(=O)OCc2ccccc2)C(c2ccccc2-c2cccc(C)c2)n2nnnc2N1 (centres unmarked) [PT-350, benzyl 5-methyl-7-(3′-methylbiphenyl-2-yl)-4,7-dihydrotetrazolo[1,5-a]pyrimidine-6-carboxylate]",63.2%
14,"CC1=C(C(=O)OCc2ccccc2)C(c2ccccc2)c2cn[nH]c2N1 (centres unmarked) [PT-372, benzyl 6-methyl-4-phenyl-4,7-dihydro-1H-pyrazolo[3,4-b]pyridine-5-carboxylate]",20.8%
15,"Cc1n[nH]c2c1C(c1cccc3ccccc13)C1=C(COC1=O)N2 (centres unmarked) [PT-081, 3-methyl-4-(naphthalen-1-yl)-7,8-dihydro-1H-furo[3,4-e]pyrazolo[3,4-b]pyridin-5(4H)-one]",16.6%
16,"CCOC(=O)C1=C(C)NC2=C(C(=O)CCC2)C1c1ccc(OC)c2ccc(OC)cc12 (centres unmarked) [PT-138, ethyl 4-(4,7-dimethoxynaphthalen-1-yl)-2-methyl-5-oxo-1,4,5,6,7,8-hexahydroquinoline-3-carboxylate]",34.1%
17,"CC1=C(C(=O)OCc2ccccc2)C(c2sccc2B(O)O)n2nnnc2N1 (centres unmarked) [PT-256, 2-(6-(benzyloxycarbonyl)-5-methyl-4,7-dihydrotetrazolo[1,5-a]pyrimidin-7-yl)thiophen-3-ylboronic acid]",25.7%
18,"CCOC(=O)C1=C(C)Nc2[nH]nc(C)c2C1c1cccs1 (centres unmarked) [PT-443, ethyl 3,6-dimethyl-4-(thiophen-2-yl)-4,7-dihydro-1H-pyrazolo[3,4-b]pyridine-5-carboxylate]",20%
19,"COC(=O)c1ccc(C2C(C(=O)OCc3ccccc3)=C(C)Nc3nnnn32)cc1 (centres unmarked) [PT-412, benzyl 7-(4-(methoxycarbonyl)phenyl)-5-methyl-4,7-dihydrotetrazolo[1,5-a]pyrimidine-6-carboxylate]",27.6%

row,Structure (SMILES),inhibition at 10 µM
1,"CC1=C(C(=O)OCc2ccccc2)C(c2cc(-c3ccsc3)cs2)n2nnnc2N1 (centres unmarked) [PT-398, benzyl 7-(3,3′-bithiophen-5-yl)-5-methyl-4,7-dihydrotetrazolo[1,5-a]pyrimidine-6-carboxylate]",18.3%
2,"COC(=O)C1=C(C)Nc2nnnn2C1c1c(-c2cccc(C(=O)O)c2)sc2ccccc12 (centres unmarked) [PT-275, 3-(3-(6-(methoxycarbonyl)-5-methyl-4,7-dihydrotetrazolo[1,5-a]pyrimidin-7-yl)benzo[b]thiophen-2-yl)benzoic acid]",9.4%
3,"CC1=C(C(=O)OCc2ccccc2)C(c2ccccc2-c2cccc(C(=O)O)c2)C2=C(CCCC2=O)N1 (centres unmarked) [PT-248, 2′-(3-(benzyloxycarbonyl)-2-methyl-5-oxo-1,4,5,6,7,8-hexahydroquinolin-4-yl)biphenyl-3-carboxylic acid]",27.2%
4,"CC1=C(C(=O)OC(C)C)C(c2ccc(-c3ccc(Cl)cc3)o2)C(C(=O)OC(C)C)=C(C)N1 [PT-126, diisopropyl 4-(5-(4-chlorophenyl)furan-2-yl)-2,6-dimethyl-1,4-dihydropyridine-3,5-dicarboxylate]",-39%
5,"CC1=C(C(=O)OCc2ccccc2)C(c2ccccc2-c2c(C)noc2C)n2nnnc2N1 (centres unmarked) [PT-376, benzyl 7-(2-(3,5-dimethylisoxazol-4-yl)phenyl)-5-methyl-4,7-dihydrotetrazolo[1,5-a]pyrimidine-6-carboxylate]",61%
6,"CC1=C(C(=O)OCc2ccccc2)C(c2ccc3ccccc3c2)c2cn[nH]c2N1 (centres unmarked) [PT-368, benzyl 6-methyl-4-(naphthalen-2-yl)-4,7-dihydro-1H-pyrazolo[3,4-b]pyridine-5-carboxylate]",-4.2%
7,"CCOC(=O)C1=C(C)NC2=C(C(=O)CCC2)C1c1ccccc1-c1ccc(C(N)=O)cc1 (centres unmarked) [PT-455, ethyl 4-(4′-carbamoylbiphenyl-2-yl)-2-methyl-5-oxo-1,4,5,6,7,8-hexahydroquinoline-3-carboxylate]",9%
8,"CCOC(=O)C1=C(C(C)=O)C(c2cccc3ccccc23)n2nnnc2N1 (centres unmarked) [PT-465, ethyl 6-acetyl-7-(naphthalen-1-yl)-4,7-dihydrotetrazolo[1,5-a]pyrimidine-5-carboxylate]",10.5%
9,"CC1=C(C(=O)OCc2ccccc2)C(c2cccc3ccccc23)c2cn[nH]c2N1 (centres unmarked) [PT-367, benzyl 6-methyl-4-(naphthalen-1-yl)-4,7-dihydro-1H-pyrazolo[3,4-b]pyridine-5-carboxylate]",16.1%
10,"CC1=C(C(=O)OCc2ccccc2)C(c2ccccc2-c2ccccc2)C2=C(CCCC2=O)N1 (centres unmarked) [PT-336, benzyl 4-(biphenyl-2-yl)-2-methyl-5-oxo-1,4,5,6,7,8-hexahydroquinoline-3-carboxylate]",60.1%
11,"COc1cc(-c2nnn[nH]2)ccc1C1C(C(=O)OCc2ccccc2)=C(C)Nc2nnnn21 (centres unmarked) [PT-393, benzyl 7-(2-methoxy-4-(1H-tetrazol-5-yl)phenyl)-5-methyl-4,7-dihydrotetrazolo[1,5-a]pyrimidine-6-carboxylate]",9.8%
12,"CC1=C(C(=O)OCc2ccccc2)C(c2c3ccccc3cc3ccccc23)C2=C(CCCC2=O)N1 (centres unmarked) [PT-334, benzyl 4-(anthracen-9-yl)-2-methyl-5-oxo-1,4,5,6,7,8-hexahydroquinoline-3-carboxylate]",29.9%
13,"CC1=C(C(=O)OCc2ccccc2)C(c2ccc(C(F)(F)F)cc2)n2nnnc2N1 (centres unmarked) [PT-358, benzyl 5-methyl-7-(4-(trifluoromethyl)phenyl)-4,7-dihydrotetrazolo[1,5-a]pyrimidine-6-carboxylate]",7.4%
14,"COC(=O)C1=C(C)Nc2cc(C)nn2C1c1cccc2ccccc12 (centres unmarked) [PT-508, methyl 2,5-dimethyl-7-(naphthalen-1-yl)-4,7-dihydropyrazolo[1,5-a]pyrimidine-6-carboxylate]",11.6%
15,"CC1=C(C(=O)OCc2cccc(C#N)c2)C(c2cccc3ccccc23)n2nnnc2N1 (centres unmarked) [PT-278, 3-cyanobenzyl 5-methyl-7-(naphthalen-1-yl)-4,7-dihydrotetrazolo[1,5-a]pyrimidine-6-carboxylate]",63.9%
16,"COC(=O)C1=C(C)Nc2[nH]nc(C)c2C1c1nc(C)cs1 (centres unmarked) [PT-509, methyl 3,6-dimethyl-4-(4-methylthiazol-2-yl)-4,7-dihydro-1H-pyrazolo[3,4-b]pyridine-5-carboxylate]",6.4%
17,"CC1=C(C(=O)OCc2ccccc2)C(c2ccccc2-c2cnc(N)nc2)n2nnnc2N1 (centres unmarked) [PT-375, benzyl 7-(2-(2-aminopyrimidin-5-yl)phenyl)-5-methyl-4,7-dihydrotetrazolo[1,5-a]pyrimidine-6-carboxylate]",50.7%
18,"CCOC(=O)C1=C(CC)Nc2nnnn2C1c1ccc2ccccc2c1 (centres unmarked) [PT-011, ethyl 5-ethyl-7-(naphthalen-2-yl)-4,7-dihydrotetrazolo[1,5-a]pyrimidine-6-carboxylate]",37.7%

# Same assay, conditions: read-out: Late INa % blk
row,Structure (SMILES),inhibition at 10 µM
1,"O=C1OCC2=C1C(c1cccc3ccccc13)c1c(-c3ccco3)n[nH]c1N2 (centres unmarked) [PT-080, 3-(furan-2-yl)-4-(naphthalen-1-yl)-7,8-dihydro-1H-furo[3,4-e]pyrazolo[3,4-b]pyridin-5(4H)-one]",31.9%
